According to ChEMBL document CHEMBL1128990, “Design, synthesis, and characterization of dipeptide isostere containing cis-epoxide for the irreversible inactivation of HIV protease” (Bioorg Med Chem Lett, 1996):

How the values were obtained:
[1] = target: Human immunodeficiency virus type 1 protease (Human immunodeficiency virus 1, UniProt Q72874); experiment: Inhibitory activity against HIV protease was determined
[2] = target: Human immunodeficiency virus type 1 protease (Human immunodeficiency virus 1) (UniProt Q72874); experiment: Kinetic parameter (kina) value was determined for the compound
Cathepsin D = Cathepsin D (Homo sapiens, UniProt P07339); experiment: Inhibitory activity against human cathepsin D was determined
Cathepsin D, sequence (P07339 65-162 limits assumed): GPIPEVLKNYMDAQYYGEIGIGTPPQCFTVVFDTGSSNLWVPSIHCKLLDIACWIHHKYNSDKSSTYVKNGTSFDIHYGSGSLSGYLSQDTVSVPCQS
Cathepsin D, sequence (P07339 169-412 limits assumed): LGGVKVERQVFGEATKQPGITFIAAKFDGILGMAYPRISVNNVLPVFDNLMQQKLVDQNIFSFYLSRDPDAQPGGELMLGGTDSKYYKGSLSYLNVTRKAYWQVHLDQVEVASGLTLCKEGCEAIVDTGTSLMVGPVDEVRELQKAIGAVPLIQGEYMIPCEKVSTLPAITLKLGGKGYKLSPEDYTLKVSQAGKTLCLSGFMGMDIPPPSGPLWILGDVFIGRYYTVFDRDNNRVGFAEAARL

## CCC(C)C(NC(=O)C[C@H]1O[C@H]1[C@H](Cc1ccccc1)NC(=O)C(CC(N)=O)NC(=O)c1ccc2ccccc2n1)C(=O)O (mixture of isomers)
[1]
  Ki: 0.018 µM
[2]
  Kina: 0.22 min⁻¹

## CC(C)C(NC(=O)C[C@H]1O[C@H]1[C@H](Cc1ccccc1)NC(=O)OCc1ccccc1)C(=O)O (stereo partly specified)
[1]
  Ki: 1.32 µM
[2]
  Kina: 1.48 min⁻¹

## CC(C)C(NC(=O)C[C@H]1O[C@@H]1[C@H](Cc1ccccc1)NC(=O)OCc1ccccc1)C(=O)O (stereo partly specified)
[1]
  Ki: 200 µM
[2]
  Kina: 0.2 min⁻¹

## CC(C)C(NC(=O)[C@@H]1O[C@@H]1[C@H](Cc1ccccc1)NC(=O)OCc1ccccc1)C(=O)O (stereo partly specified)
[1]
  Ki: > 10000 µM
[2]
  Kina: 0.02 min⁻¹

## CC(C)C(NC(=O)C[C@@H]1O[C@@H]1[C@H](Cc1ccccc1)NC(=O)C(CC(N)=O)NC(=O)c1ccc2ccccc2n1)C(C)C (stereo partly specified)
Cathepsin D
  IC50: 12.5 µM
[1]
  Ki: 0.001 µM
[2]
  Kina: 0.2 min⁻¹
